Measurements taken from patent publication US6489297B1, “Vasoactive intestinal peptide analogs” (Dabur Research Foundation, priority 2000, dated 2002).
Where a SMILES comes first, the peptide text is derived from it. [ ]: non-standard residue; d: D form. dPhe(4-Cl) = N[C@H](Cc1ccc(Cl)cc1)C(=O)O; Dpg = CCCC(N)(CCC)C(=O)O; Ac5c = NC1(C(=O)O)CCCC1; Deg = CCC(N)(CC)C(=O)O; Aib = CC(C)(N)C(=O)O

Assays:
Assay type in all cases: cell-based, human
Settings in all cases: 72 hours
L132 (lung) = assay: MTT cytotoxicity assay, L132 cells
Description: (§1) The cytotoxic activity of synthesized peptides was tested on […] human tumor cell lines namely PA-1 (ovary), SW620 (colon) HuTu80 (duodenum), L132 (lung), U87MG (glioblastoma), KB (oral), MIAPaCa2(pancreas), A549(non small cell lung) and HT-29(colon). The tumor cells were collected at exponential growth phase and resuspended in medium (1.5×10^6 cells/ml in RPMI 1640 containing 10% FBS). 150 μl of medium was added to the wells of a 96-well tissue culture plate (Nunc, Denmark) followed by 30 μl of cell suspension. The plate was left in incubator (37° C., 5% CO2) overnight. 20 μl of the peptide (100 pM to 1 uM concentration) was added to marked wells of the 96-well plate. Each concentration was plated in triplicates. 20 μl of medium alone was added to control wells while wells without cells served as blanks. A total volume of 200 μl was ensured in each well and plate was left in incubator (37° C., 5% CO2). After 72 hours of incubation an MTT assay was performed and percentage cytotoxicity was calculated with respect to control cells. Following Tables show the maximum cytotoxicity achieved on various cell lines.

SW620 (colon) = assay: MTT cytotoxicity assay, SW620 cells
Description: as §1

KB (oral) = assay: MTT cytotoxicity assay, KB cells
Description: as §1

HuTu80 (duodenum) = assay: MTT cytotoxicity assay, HuTu80 cells
Description: as §1

PA-1 (ovary) = assay: MTT cytotoxicity assay, PA-1 cells
Description: as §1

U87MG (glioblastoma) = assay: MTT cytotoxicity assay, U87MG cells
Description: as §1

Question: Which results are given for `CC[C@H](C)[C@H](NC(=O)[C@H](CO)NC(=O)[C@H](CC(N)=O)NC(=O)[C@H](CC(C)C)NC(=O)[C@H](Cc1ccc(O)cc1)NC(=O)[C@H](CCCCN)NC(=O)[C@H](CCCCN)NC(=O)[C@@H](NC(=O)[C@H](C)NC(=O)[C@H](CC(C)C)NC(=O)[C@H](CCC(N)=O)NC(=O)[C@H](CCCCN)NC(=O)[C@H](CCCNC(=N)N)NC(=O)[C@H](CC(C)C)NC(=O)[C@H](CCCNC(=N)N)NC(=O)[C@@H](NC(=O)[C@H](Cc1ccc(O)cc1)NC(=O)[C@H](CC(N)=O)NC(=O)[C@H](CC(=O)O)NC(=O)[C@@H](NC(=O)[C@@H](Cc1ccc(Cl)cc1)NC(=O)[C@@H](NC(=O)C(CC)(CC)NC(=O)[C@H](CC(=O)O)NC(=O)[C@H](CO)NC(=O)[C@@H](N)Cc1c[nH]cn1)C(C)C)[C@@H](C)O)[C@@H](C)O)C(C)C)C(=O)N[C@@H](CC(C)C)C(=O)N[C@@H](CC(N)=O)C(N)=O` [SEQ ID NO: 3] (H-HSD[Deg]V[dPhe(4-Cl)]TDNYTRLRKQLAVKKYLNSILN-NH2)?
Answer: Percentage cytotoxicity (L132 (lung); L132, 100 pM): 14 ± 5.6%; Percentage cytotoxicity (L132 (lung); L132, 1 nM): 23 ± 3.5%; Percentage cytotoxicity (L132 (lung); L132, 10 nM): 29 ± 6.7%; Percentage cytotoxicity (L132 (lung); L132, 100 nM): 26 ± 6.5%; Percentage cytotoxicity (L132 (lung); L132, 1 μM): 14 ± 6.5%; Percentage cytotoxicity (SW620 (colon); SW620, 100 pM): 15.9 ± 6.6%; Percentage cytotoxicity (SW620 (colon); SW620, 1 nM): 29 ± 5.6%; Percentage cytotoxicity (SW620 (colon); SW620, 10 nM): 27 ± 5.5%; Percentage cytotoxicity (SW620 (colon); SW620, 100 nM): 22 ± 7.3%; Percentage cytotoxicity (SW620 (colon); SW620, 1 μM): 16 ± 3.4%; Percentage cytotoxicity (KB (oral); 100 pM): 13 ± 8.5%; Percentage cytotoxicity (KB (oral); 1 nM): 24.5 ± 9.5%; Percentage cytotoxicity (KB (oral); 10 nM): 22 ± 8.2%; Percentage cytotoxicity (KB (oral); 100 nM): 18 ± 8.5%; Percentage cytotoxicity (KB (oral); 1 μM): 14 ± 3.4%; Percentage cytotoxicity (HuTu80 (duodenum); HuTu80, 100 pM): 14 ± 7.8%; Percentage cytotoxicity (HuTu80 (duodenum); HuTu80, 1 nM): 29 ± 6.2%; Percentage cytotoxicity (HuTu80 (duodenum); HuTu80, 10 nM): 28 ± 4.7%; Percentage cytotoxicity (HuTu80 (duodenum); HuTu80, 100 nM): 24 ± 7.8%; Percentage cytotoxicity (HuTu80 (duodenum); HuTu80, 1 μM): 14.5 ± 7.1%; Percentage cytotoxicity (PA-1 (ovary); PA1, 100 pM): 15 ± 4.5%; Percentage cytotoxicity (PA-1 (ovary); PA1, 1 nM): 29 ± 5.8%; Percentage cytotoxicity (PA-1 (ovary); PA1, 10 nM): 22 ± 4.5%; Percentage cytotoxicity (PA-1 (ovary); PA1, 100 nM): 23.5 ± 5.2%; Percentage cytotoxicity (PA-1 (ovary); PA1, 1 μM): 22.1 ± 4.5%; Percentage cytotoxicity (U87MG (glioblastoma); 100 pM): 11 ± 7.8%; Percentage cytotoxicity (U87MG (glioblastoma); 1 nM): 16 ± 6.6%; Percentage cytotoxicity (U87MG (glioblastoma); 10 nM): 28 ± 7.5%; Percentage cytotoxicity (U87MG (glioblastoma); 100 nM): 26 ± 6.7%; Percentage cytotoxicity (U87MG (glioblastoma); 1 μM): 25 ± 4.6%

Question: With `CC[C@H](C)[C@H](NC(=O)[C@H](CO)NC(=O)[C@H](CC(N)=O)NC(=O)[C@H](CC(C)C)NC(=O)[C@H](Cc1ccc(O)cc1)NC(=O)[C@H](CCCCN)NC(=O)[C@H](CCCCN)NC(=O)[C@@H](NC(=O)[C@H](C)NC(=O)[C@H](CC(C)C)NC(=O)[C@H](CCC(N)=O)NC(=O)[C@H](CCCCN)NC(=O)[C@H](CCCNC(=N)N)NC(=O)[C@H](CC(C)C)NC(=O)[C@H](CCCNC(=N)N)NC(=O)[C@@H](NC(=O)[C@H](Cc1ccc(O)cc1)NC(=O)[C@H](CC(N)=O)NC(=O)[C@H](CC(=O)O)NC(=O)[C@@H](NC(=O)[C@@H](Cc1ccc(Cl)cc1)NC(=O)[C@@H](NC(=O)C1(NC(=O)[C@H](CC(=O)O)NC(=O)[C@H](CO)NC(=O)[C@@H](N)Cc2c[nH]cn2)CCCC1)C(C)C)[C@@H](C)O)[C@@H](C)O)C(C)C)C(=O)N[C@@H](CC(C)C)C(=O)N[C@@H](CC(N)=O)C(N)=O` [SEQ ID NO: 4] (H-HSD[Ac5c]V[dPhe(4-Cl)]TDNYTRLRKQLAVKKYLNSILN-NH2) as the molecule, how does the Percentage cytotoxicity (L132 (lung); L132, 100 pM) read?
Answer: 11 ± 8.0%

Question: What about the Percentage cytotoxicity (L132 (lung); L132, 1 nM) of the same molecule?
Answer: 27 ± 4.5%

Question: And the Percentage cytotoxicity (L132 (lung); L132, 10 nM)?
Answer: 30 ± 5.5%

Question: What about the Percentage cytotoxicity (L132 (lung); L132, 100 nM) of the same molecule?
Answer: 28 ± 5.5%

Question: What about the Percentage cytotoxicity (L132 (lung); L132, 1 μM) of the same molecule?
Answer: 13 ± 4.5%

Question: And the Percentage cytotoxicity (SW620 (colon); SW620, 100 pM)?
Answer: 16.9 ± 5.5%

Question: And the Percentage cytotoxicity (SW620 (colon); SW620, 1 nM)?
Answer: 31 ± 6.5%

Question: What about the Percentage cytotoxicity (SW620 (colon); SW620, 10 nM) of the same molecule?
Answer: 28.5 ± 4.5%

Question: And the Percentage cytotoxicity (SW620 (colon); SW620, 100 nM)?
Answer: 23 ± 6.7%

Question: And the Percentage cytotoxicity (SW620 (colon); SW620, 1 μM)?
Answer: 15 ± 4.5%

Question: What about the Percentage cytotoxicity (KB (oral); 100 pM) of the same molecule?
Answer: 13 ± 8.0%

Question: And the Percentage cytotoxicity (KB (oral); 1 nM)?
Answer: 30 ± 7.8%

Question: What about the Percentage cytotoxicity (KB (oral); 10 nM) of the same molecule?
Answer: 27 ± 7.8%

Question: What about the Percentage cytotoxicity (KB (oral); 100 nM) of the same molecule?
Answer: 26 ± 5.6%

Question: What about the Percentage cytotoxicity (KB (oral); 1 μM) of the same molecule?
Answer: 27 ± 4.3%

Question: What about the Percentage cytotoxicity (HuTu80 (duodenum); HuTu80, 100 pM) of the same molecule?
Answer: 11 ± 8.0%

Question: What about the Percentage cytotoxicity (HuTu80 (duodenum); HuTu80, 1 nM) of the same molecule?
Answer: 30 ± 7.0%

Question: What about the Percentage cytotoxicity (HuTu80 (duodenum); HuTu80, 10 nM) of the same molecule?
Answer: 27 ± 5.0%

Question: What about the Percentage cytotoxicity (HuTu80 (duodenum); HuTu80, 100 nM) of the same molecule?
Answer: 27 ± 7.9%

Question: What about the Percentage cytotoxicity (HuTu80 (duodenum); HuTu80, 1 μM) of the same molecule?
Answer: 15.5 ± 6.5%

Question: And the Percentage cytotoxicity (PA-1 (ovary); PA1, 100 pM)?
Answer: 16.1 ± 0.0%

Question: What about the Percentage cytotoxicity (PA-1 (ovary); PA1, 1 nM) of the same molecule?
Answer: 30 ± 6.0%

Question: What about the Percentage cytotoxicity (PA-1 (ovary); PA1, 10 nM) of the same molecule?
Answer: 23 ± 3.5%

Question: And the Percentage cytotoxicity (PA-1 (ovary); PA1, 100 nM)?
Answer: 22.3 ± 4.5%

Question: What about the Percentage cytotoxicity (PA-1 (ovary); PA1, 1 μM) of the same molecule?
Answer: 21 ± 5.5%

Question: And the Percentage cytotoxicity (U87MG (glioblastoma); 100 pM)?
Answer: 10 ± 4.6%

Question: What about the Percentage cytotoxicity (U87MG (glioblastoma); 1 nM) of the same molecule?
Answer: 15 ± 7.8%

Question: And the Percentage cytotoxicity (U87MG (glioblastoma); 10 nM)?
Answer: 29 ± 6.7%

Question: And the Percentage cytotoxicity (U87MG (glioblastoma); 100 nM)?
Answer: 28 ± 7.7%

Question: What about the Percentage cytotoxicity (U87MG (glioblastoma); 1 μM) of the same molecule?
Answer: 27 ± 5.5%

Question: Which results are given for `CCCC(CCC)(NC(=O)[C@H](CCC(N)=O)NC(=O)[C@H](CCCCN)NC(=O)[C@H](CCCNC(=N)N)NC(=O)[C@H](CC(C)C)NC(=O)[C@H](CCCNC(=N)N)NC(=O)[C@@H](NC(=O)[C@H](Cc1ccc(O)cc1)NC(=O)[C@H](CC(N)=O)NC(=O)[C@H](CC(=O)O)NC(=O)[C@@H](NC(=O)[C@H](Cc1ccccc1)NC(=O)[C@@H](NC(=O)C(C)(C)NC(=O)[C@H](CC(=O)O)NC(=O)[C@H](CO)NC(=O)[C@@H](N)Cc1c[nH]cn1)C(C)C)[C@@H](C)O)[C@@H](C)O)C(=O)N[C@@H](C)C(=O)N[C@H](C(=O)N[C@@H](CCCCN)C(=O)N[C@@H](CCCCN)C(=O)N[C@@H](Cc1ccc(O)cc1)C(=O)N[C@@H](CC(C)C)C(=O)N[C@@H](CC(N)=O)C(=O)N[C@@H](CO)C(=O)N[C@H](C(=O)N[C@@H](CC(C)C)C(=O)N[C@@H](CC(N)=O)C(N)=O)[C@@H](C)CC)C(C)C` [SEQ ID NO: 9, His-Ser-Asp-Aib-Val-Phe-Thr-Asp-Asn-Tyr-Thr-Arg-Leu-Arg-Lys-Gln-Dpg-Ala-Val-Lys-Lys-Tyr-Leu-Asn-Ser-Ile-Leu-Asn-NH2] (H-HSD[Aib]VFTDNYTRLRKQ[Dpg]AVKKYLNSILN-NH2)?
Answer: Percentage cytotoxicity (L132 (lung); L132, 100 pM): 17 ± 2.3%; Percentage cytotoxicity (L132 (lung); L132, 1 nM): 20 ± 0.0%; Percentage cytotoxicity (L132 (lung); L132, 10 nM): 18.9 ± 6.0%; Percentage cytotoxicity (L132 (lung); L132, 100 nM): 17.5 ± 5.5%; Percentage cytotoxicity (L132 (lung); L132, 1 μM): 13.6 ± 5.6%; Percentage cytotoxicity (SW620 (colon); SW620, 100 pM): 15.9 ± 4.5%; Percentage cytotoxicity (SW620 (colon); SW620, 1 nM): 28 ± 5.0%; Percentage cytotoxicity (SW620 (colon); SW620, 10 nM): 27 ± 3.4%; Percentage cytotoxicity (SW620 (colon); SW620, 100 nM): 21 ± 3.6%; Percentage cytotoxicity (SW620 (colon); SW620, 1 μM): 16.7 ± 4.1%; Percentage cytotoxicity (KB (oral); 100 pM): 13 ± 5.0%; Percentage cytotoxicity (KB (oral); 1 nM): 21.5 ± 4.5%; Percentage cytotoxicity (KB (oral); 10 nM): 16.7 ± 3.2%; Percentage cytotoxicity (KB (oral); 100 nM): 16.7 ± 5.1%; Percentage cytotoxicity (KB (oral); 1 μM): 10.5 ± 6.5%; Percentage cytotoxicity (HuTu80 (duodenum); HuTu80, 100 pM): 14.6 ± 2.7%; Percentage cytotoxicity (HuTu80 (duodenum); HuTu80, 1 nM): 28.5 ± 3.2%; Percentage cytotoxicity (HuTu80 (duodenum); HuTu80, 10 nM): 26 ± 5.5%; Percentage cytotoxicity (HuTu80 (duodenum); HuTu80, 100 nM): 23 ± 6.0%; Percentage cytotoxicity (HuTu80 (duodenum); HuTu80, 1 μM): 14.6 ± 5.1%; Percentage cytotoxicity (PA-1 (ovary); PA1, 100 pM): 15.5 ± 3.3%; Percentage cytotoxicity (PA-1 (ovary); PA1, 1 nM): 27.8 ± 4.3%; Percentage cytotoxicity (PA-1 (ovary); PA1, 10 nM): 25.6 ± 4.5%; Percentage cytotoxicity (PA-1 (ovary); PA1, 100 nM): 17.4 ± 3.2%; Percentage cytotoxicity (PA-1 (ovary); PA1, 1 μM): 15.1 ± 2.3%; Percentage cytotoxicity (U87MG (glioblastoma); 100 pM): 11.5 ± 5.0%; Percentage cytotoxicity (U87MG (glioblastoma); 1 nM): 13.7 ± 3.6%; Percentage cytotoxicity (U87MG (glioblastoma); 10 nM): 26.7 ± 3.5%; Percentage cytotoxicity (U87MG (glioblastoma); 100 nM): 18.9 ± 6.5%; Percentage cytotoxicity (U87MG (glioblastoma); 1 μM): 12.5 ± 6.5%
